Laboratory results as given in patent US4728659A, “Aminomethyl derivatives and preparation process thereof as well as platelet aggregation inhibitors containing same” (SS Pharmaceutical Co., Ltd., priority 1984, dated 1988).
≈ marks a conversion by molar mass, not a printed value.

Assays:
[1] = test system: platelet aggregation by arachidonic acid; test: Inhibition of aggregation of rabbit platelets (PRP) by arachidonic acid; type: cell-based; settings: Oryctolagus cuniculus, arachidonic acid 1 mM, compound added 2 minutes before agent, read-out: 50% Platelet Aggregation Inhibitory Concentration (IC50), Arachidonic acid
Procedure: (§1) Blood, which had been added with sodium citrate, was collected from a male rabbit (body weight: 3 Kg), which was then subjected suitably to centrifugation so that platelet-rich plasma (PRP) and platelet-poor plasma (PPP) were obtained. Inhibitory effects of certain sample compounds of this invention against aggregation by ADP (3 μM) and arachidonic acid (1 mM) were thereafter tested by a method known per se in the art. Each sample compound was dissolved in 5% dimethylsulfoxide (DMSO) and Tween 80 (trade mark) and was then added to PRP 2 minutes before addition of each of the aggregation agents to the PRP.

[2] = test system: platelet aggregation by ADP; test: Inhibition of aggregation of rabbit platelets (PRP) by ADP; type: cell-based; settings: Oryctolagus cuniculus, ADP 3 μM, compound added 2 minutes before agent, read-out: 50% Platelet Aggregation Inhibitory Concentration (IC50), ADP
Procedure: as §1

[3] = Acute toxicity, intraperitoneal, mice; type: in vivo; settings: for abnormality observed / survival of mice: 200 mg/Kg intraperitoneal, five ddY male mice, after 7 days; for LD50 at 168 h: mouse, in vivo, ip
Procedure: Each of certain sample compounds (which had been obtained in Examples 6, 7, 10 and 15-17, which will be given herein) was dissolved in water and was then administered intraperitoneally at a dose of 200 mg/Kg to a group of five ddY male mice. Those mice were fed for 7 days while observing them.

[4] = test system: platelet aggregation by ADP; test: Platelet aggregation by ADP in PRP after oral administration to rats (ex vivo); settings: 30 mg/Kg oral, male Wister rat, blood collected 2 hours after administration, 60 μM ADP, read-out: Percent inhibition against aggregation, ADP
Procedure: (§2) Each sample compound was orally administered at 30 mg/Kg to a male Wister rat (body weight: 220 g) which had fasted for 24 hours. Platelet-rich plasma was obtained from blood which had been collected 2 hours after the administration and added with sodium citrate. Changes in platelet aggregation upon addition of 60 μM of ADP or 100 μg/ml of collagen were observed. The number of platelets was adjusted to 6×10^5 platelets/mm^3 for aggregation by ADP and to 3×10^5 platelets/mm^3 for aggregation by collagen. Each of the sample compounds was dissolved in DMSO+Tween 80 (trade mark) prior to its administration.

[5] = test system: platelet aggregation by collagen; test: Platelet aggregation by collagen in PRP after oral administration to rats (ex vivo); settings: 30 mg/Kg oral, male Wister rat, blood collected 2 hours after administration, 100 μg/ml collagen, read-out: Percent inhibition against aggregation, collagen
Procedure: as §2

[6] = intraperitoneal, ddY male mice, 7 days observation

Row | Compound | IC50 [1] [µg/mL] | IC50 [2] [µg/mL] | abnormality observed [3] | survival of mice [3] | LD50 at 168 h [3, 6] [mg/kg] | inhibition at 30 mg/kg [4] [%] | inhibition at 30 mg/kg [5] [%] | LD50 at 168 h [3] [mg/kg]
1 | CCN(CC)CC#CC(=O)c1ccc(C)cc1 [Example 1, N-[4-(p-Methylphenyl)-4-oxo-2-butynyl]-N,N-diethylamine] | 2.5 (≈ 10.9 µM) | 7 (≈ 30.5 µM) | – | – | – | – | – | –
2 | CCN(CC)CC#CC(=O)c1ccc(OC)cc1 [Example 4] | 3.6 (≈ 14.7 µM) | 9 (≈ 36.7 µM) | – | – | – | – | – | –
3 | CCN(CC)CC#CC(OC(=O)c1cccnc1)c1ccccc1 (centres unmarked) [Example 6, N-(4-Nicotinoyloxy-4-phenyl-2-butynyl)-N,N-diethylamine] | – | – | no abnormality was observed | all the mice were still alive | > 200 | – | – | –
4 | CCN(CC)CC#CC(OC(=O)c1cccnc1)c1ccc(C)cc1 (centres unmarked) [Example 7] | – | – | no abnormality was observed | all the mice were still alive | – | 20.1 | 37.6 | > 200
5 | CCN(CC)CC#CC(OC(=O)c1cccnc1)c1ccc(OC)cc1 (centres unmarked) [Example 10] | – | – | no abnormality was observed | all the mice were still alive | – | – | – | > 200
6 | CCN(CC)C/C=C/C(OC(=O)c1cccnc1)c1ccc(C)cc1 (centres unmarked) [Example 13] | – | – | – | – | – | 30.5 | 31.5 | –
7 | CN(C)CC#CC(=O)c1ccccc1 [Example 15, N-(4-Phenyl-4-oxo-2-butynyl)-N,N-dimethylamine] | 4.7 (≈ 25.1 µM) | 21 (≈ 112 µM) | – | – | > 200 | – | – | –
8 | CCCN(CC)CC#CC(=O)c1ccccc1 [Example 16, N-(4-Phenyl-4-oxo-2-butynyl)-N-ethyl-N-n-propylamine] | 4.3 (≈ 18.8 µM) | 18 (≈ 78.5 µM) | – | – | > 200 | – | – | –
9 | CCN(CC)CC#CC(=O)c1ccccc1 [Example 17] | 4.5 (≈ 20.9 µM) | 20 (≈ 92.9 µM) | – | – | – | – | – | > 200
